Reference: patent publication US20240300940A1, “Phenothiazinyl Compounds and Uses” (Prosetta Biosciences, Inc., priority 2023, published 2024)
Read-outs that look alike come from different tables or passages of the source.

What was measured:
[1] = Mouse plasma pharmacokinetics
Protocol: For the mouse plasma pharmacokinetic analyses, the study was conducted in BALB/c mice with single dose of IV-3 mg/kg. Blood samples were collected at 10 time points/dose (0.25, 0.5, 1, 2, 4, 6, 8, 10, 12, and 24 h post dose). At each time point, blood samples were collected from 4 mice from the retro-orbital plexus. A terminal blood collection method was employed for collecting blood samples for each time point in all PK studies. […] The PK parameters were estimated by noncompartmental analysis.
Dose—mg/kg, AUC—ng. h/mL, Cmax-ng/mL, Tmax-h, Kel—1/h, Half-life-h, MRT-h, Clearance—mL/min/kg, Vd-L/kg, Bioavailability-%. IV—Intravenous, IP— Intraperitoneal, PO—Per oral.

[2] = system: S. pyogens ATCC49399; test: MIC assay, serial dilution; conditions: Streptococcus
[3] = system: Sensitive strain; test: Cross resistance test (MIC); conditions: read-out: MIC, Sensitive strain
[4] = system: A. baumannii ATCC19606; test: MIC assay, serial dilution; conditions: Acinetobacter baumannii
[5] = system: MRSA/S. aureus isolates; test: MIC50 against isolates; assay type: cell-based; conditions: Staphylococcus aureus
[6] = system: E. faecalis ATCC29212; test: MIC assay, serial dilution; conditions: Enterococcus faecalis
[7] = system: E. faecium ATCC27270; test: MIC assay, serial dilution; conditions: Enterococcus faecium
[8] = system: S. epidermidis ATCC14990; test: Minimum bactericidal concentration assay; assay type: cell-based; conditions: Staphylococcus epidermidis
Protocol: (§1) The study was done based on CLSI document M26-A Wayne, PA: Clinical and laboratory standard institute: 1999.
(§2) After determination of a MIC in a broth system under standard conditions, measured aliquots of growth media may be sub-cultured quantitatively to solid media to assess bactericidal activity. To calculate the extent of killing at each antibiotic concentration, plates are incubated under appropriate conditions, colony counts are performed and results are compared to that of the growth control well. The accepted definition of the minimum bactericidal concentration (MBC) is the lowest concentration of test compound at which a 99.9% (3 log) or greater reduction in growth compared with the initial inoculum is observed. […] (Table 4).

[9] = system: S. pyogens ATCC49399; test: Minimum bactericidal concentration assay; assay type: cell-based; conditions: Streptococcus
Protocol: as §1, §2

[10] = system: E. faecalis ATCC29212; test: Minimum bactericidal concentration assay; assay type: cell-based; conditions: Enterococcus faecalis
Protocol: as §1, §2

[11] = system: S. pneumoniae ATCC49619; test: Minimum bactericidal concentration assay; assay type: cell-based; conditions: Streptococcus pneumoniae
Protocol: as §1, §2

[12] = system: E. faecium ATCC27270; test: Minimum bactericidal concentration assay; assay type: cell-based; conditions: Enterococcus faecium
Protocol: as §1, §2

[13] = system: S. aureus ATCC25923; test: Minimum bactericidal concentration assay; assay type: cell-based; conditions: Staphylococcus aureus
Protocol: as §1, §2

[14] = system: MRSA ATCC 43300; test: Serum effect on antibacterial activity (MIC); assay type: cell-based, S. aureus; conditions: Staphylococcus aureus
[15] = system: S. pneumoniae ATCC49619; test: MIC assay, serial dilution; conditions: Streptococcus pneumoniae
[16] = system: E. coli ATCC25922; test: MIC assay, serial dilution; conditions: Escherichia coli
[17] = system: Hennes-20 cells; test: Hennes-20 oncology screen; assay type: cell-based; conditions: 72 h, alamar Blue
Method in brief: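 Cells seeded at 500 and 15,000 per well in minimum essential medium, dosed with a compound titration after 24 h, then incubated 72 h at 37 °C. Alamar Blue added and incubated a further 72 h, read at 530/590. Lower signal only at low density indicates proliferation arrest; lower signal at both densities indicates toxicity.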

[18] = BALB/c, mouse, in vivo, iv, 3 mg/kg

## CC1(C)C2CN(c3ccc4nc5ccc(N6CC7C(C6)C7(C)C)cc5[s+]c4c3)CC21 (stereo not shown) [Compound 1, 3,7-Di(6,6-dimethyl-3-azabicyclo[3.1.0]hexan-N-yl)phenothiazinium iodide]
[1]; [18]
  AUC(0-inf): 2980 ng·h/mL
  AUC(0-t): 2710 ng·h/mL
  Cmax: 5620 ng/mL
  MRT: 7 h
  Tmax: 4.8 min
  Vd: 7 L/kg
  clearance: 17 mL/min/kg
  half-life: 10 h
[1]; mice, IV 3 mg/kg single dose
  Kel: 0.07 h⁻¹
[2]
  MIC: 0.25 µg/mL
[3]
  MIC: 0.25 µg/mL
[4]
  MIC: 2 µg/mL
[5]
  MIC50: 0.125 µg/mL
[6]
  MIC: 2 µg/mL
[7]
  MIC: 0.5 µg/mL
[8]
  MBC: 1 µg/mL
[9]
  MBC: 0.5 µg/mL
[10]
  MBC: 2 µg/mL
[11]
  MBC: 0.5 µg/mL
[12]
  MBC: 0.5 µg/mL
[13]
  MBC: 0.25 µg/mL
[14]; MRSA ATCC 43300, 20% serum
  MIC: 1 µg/mL
[14]; MRSA ATCC 43300, 40% serum
  MIC: 2 µg/mL
[14]; MRSA ATCC 43300, No serum
  MIC: 0.25 µg/mL
[15]
  MIC: 0.25 µg/mL
[16]; ATCC25922, E. coli ATCC25922
  MIC: 4 µg/mL
[16]; ATCC25922, read-out: Anti-bacterial Activity (E. coli MIC (uM)), E. coli, Table 5
  MIC: 1.6 µM
[17]
  EC50: 500 nM
